We go through one compound from patent publication US9629815B2, “Benzoquinone derivatives for treating oxidative stress disorders” (Edison Pharmaceuticals, Inc., priority 2012, dated 2017).

The structures appear in SMILES notation. Some results are limits rather than exact numbers.

Usually EC50 stands for the concentration needed to bring the measured effect to its halfway point.

What all share (assay type): cell-based
Assay [1] deals with human dermal fibroblasts from Huntington's patients. In words: Rescue of fibroblasts from Huntington's patients from oxidative stress. The settings on record: Fibroblast, Huntington's cells GM 04281, screen similar to Example 1, read-out: protection against Huntington's, EC50.
Assay [2] has as its system human dermal fibroblasts from Parkinson's Disease patients. In words: Rescue of fibroblasts from Parkinson's Disease patients from oxidative stress. The settings on record: Fibroblast, PD cells AG20439, screen similar to Example 1, read-out: protection against Parkinson's Disease, EC50.
In assay [3] the test system is Human dermal fibroblasts from Friedreich's Ataxia patients. Kind of assay: Rescue of BSO-stressed FRDA fibroblasts (Calcein AM viability). The note with it: FRDA fibroblasts GM04078, 1 mM BSO, 48 h, read-out: protection against FRDA, EC50. As to the method: Test samples and solvent controls were tested for their ability to rescue FRDA fibroblasts stressed by addition of L-buthionine-(S,R)-sulfoximine (BSO), as described in Jauslin et al., Hum. Mol. Genet. 11(24):3055 (2002), Jauslin et al., FASEB J. 17:1972-4 (2003), and International Patent Application WO 2004/003565. […] This specific BSO-mediated cell death can be prevented by administration of antioxidants or molecules involved in the antioxidant pathway, such as alpha-tocopherol, selenium, or small molecule glutathione peroxidase mimetics. However, antioxidants differ in their potency, i.e. the concentration at which they are able to rescue BSO-stressed FRDA fibroblasts.
MEM (a medium enriched in amino acids and vitamins, catalog no. 1-31F24-I) and Medium 199 (M199, catalog no. 1-21F22-I) with Earle's Balanced Salts, without phenol red, were purchased from Bioconcept. Fetal Calf Serum was obtained from PAA Laboratories. Basic fibroblast growth factor and epidermal growth factor were purchased from PeproTech. 2,3,5-trimethyl-6-(12-hydroxy-5,10-dodecadiynyl)-1,4-benzoquinone, penicillin-streptomycin-glutamine mix, L-buthionine (S,R)-sulfoximine, and insulin from bovine pancreas were purchased from Sigma. Calcein AM was purchased from Molecular Probes. […]

In assay [4] the test system is human dermal fibroblasts from LHON patients. In words: Rescue of fibroblasts from LHON patients from oxidative stress. The note with it: Fibroblast, LHON cells GM03858, screen similar to Example 1, read-out: protection against LHON, EC50.

In the case of `CC1=C(C)C(=O)C(CCCCC#CCCCC#CCO)=C(C)C1=O` [2,3,5-trimethyl-6-(12-hydroxy-5,10-dodecadiynyl)-1,4-benzoquinone], the concentration for a half-maximal effect (EC50) is less than 50 nM in assay [1], less than 100 nM in assay [2], less than 100 nM in assay [3] and less than 100 nM in assay [4].
